Data as given in patent publication US7235580B2, “Mitotic kinesin inhibitors” (Merck & Co., Inc., priority 2002, dated 2007).

Molecular target: T1, human KSP motor domain (KSP(367H)) (Homo sapiens, UniProt P52732)
T1 construct: were used to amplify the motor domain and the neck linker region; made in house; host or cells: E. coli BL21 (DE3), pRSETa
T1 sequence (P52732 18-359 limits assumed): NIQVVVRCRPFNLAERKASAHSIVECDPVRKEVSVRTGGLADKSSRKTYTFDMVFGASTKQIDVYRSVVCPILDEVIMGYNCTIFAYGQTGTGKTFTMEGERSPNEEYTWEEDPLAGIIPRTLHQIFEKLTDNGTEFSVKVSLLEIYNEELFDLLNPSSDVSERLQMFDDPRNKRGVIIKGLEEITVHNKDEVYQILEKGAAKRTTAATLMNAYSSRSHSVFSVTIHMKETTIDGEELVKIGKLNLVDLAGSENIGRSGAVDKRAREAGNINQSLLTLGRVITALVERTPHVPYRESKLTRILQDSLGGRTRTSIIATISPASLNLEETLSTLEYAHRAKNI
Assay: Kinesin ATPase In Vitro Assay
Format: biochemical
Conditions: kinesin motor domain with microtubules, 1 mM ATP, 23° C.; free phosphate by quinaldine red/ammonium molybdate
Source text: I. Kinesin ATPase In Vitro Assay
Cloning and Expression of Human Poly-histidine Tagged KSP Motor Domain (KSP(367H))
Plasmids for the expression of the human KSP motor domain construct were cloned by PCR using a pBluescript full length human KSP construct (Blangy et al., Cell, vol. 83, pp 1159-1169, 1995) as a template. The N-terminal primer 5′-[…] (SEQ.ID.NO.: 1) and the C-terminal primer 5′-[…] […] (SEQ.ID.NO.: 2) were used to amplify the motor domain and the neck linker region. The PCR products were digested with AseI and XhoI, ligated into the NdeI/XhoI digestion product of pRSETa (Invitrogen) and transformed into E. coli BL21 (DE3).
Cells were grown at 37° C. to an OD600 of 0.5. After cooling the culture to room temperature expression of KSP was induced with 100 μM IPTG and incubation was continued overnight. Cells were pelleted by centrifugation and washed once with ice-cold PBS. Pellets were flash-frozen and stored −80° C.
Cell pellets were thawed on ice and resuspended in lysis buffer (50 mM K-HEPES, pH 8.0, 250 mM KCl, 0.1% Tween, 10 mM imidazole, 0.5 mM Mg-ATP, 1 mM PMSF, 2 mM benzimidine, 1× complete protease inhibitor cocktail (Roche)). Cell suspensions were incubated with 1 mg/ml lysozyme and 5 mM β-mercaptoethanol on ice for 10 minutes, followed by sonication (3×30 sec). All subsequent procedures were performed at 4° C. Lysates were centrifuged at 40,000×g for 40 minutes. Supernatants were diluted and loaded onto an SP Sepharose column (Pharmacia, 5 ml cartridge) in buffer A (50 mM K-HEPES, pH 6.8, 1 mM MgCl2, 1 mM EGTA, 10 μM Mg-ATP, 1 mM DTT) and eluted with a 0 to 750 mM KCl gradient in buffer A. Fractions containing KSP were pooled and incubated with Ni-NTA resin (Qiagen) for one hour. The resin was washed three times with buffer B (Lysis buffer minus PMSP and protease inhibitor cocktail), followed by three 15-minute incubations and washes with buffer B. Finally, the resin was incubated and washed for 15 minutes three times with buffer C (same as buffer B except for pH 6.0) and poured into a column. KSP was eluted with elution buffer (identical to buffer B except for 150 mM KCl and 250 mM imidazole). KSP-containing fractions were pooled, made 10% in sucrose, and stored at −80° C.
Microtubules are prepared from tubulin isolated from bovine brain. Purified tubulin (>97% MAP-free) at 1 mg/ml is polymerized at 37° C. in the presence of 10 μM paclitaxel, 1 mM DTT, 1 mM GTP in BRB80 buffer (80 mM K-PIPES, 1 mM EGTA, 1 mM MgCl2 at pH 6.8). The resulting microtubules are separated from non-polymerized tubulin by ultracentrifugation and removal of the supernatant. The pellet, containing the microtubules, is gently resuspended in 10 μM paclitaxel, 1 mM DTT, 50 μg/ml ampicillin, and 5 μg/ml chloramphenicol in BRB80.
The kinesin motor domain is incubated with microtubules, 1 mM ATP (1:1 MgCl2: Na-ATP), and compound at 23° C. in buffer containing 80 mM K-HEPES (pH 7.0), 1 mM EGTA, 1 mM DTT, 1 mM MgCl2, and 50 mM KCl. The reaction is terminated by a 2-10 fold dilution with a final buffer composition of 80 mM HEPES and 50 mM EDTA. Free phosphate from the ATP hydrolysis reaction is measured via a quinaldine red/ammonium molybdate assay by adding 150 μl of quench C buffer containing a 2:1 ratio of quench A:quench B. Quench A contains 0.1 mg/ml quinaldine red and 0.14% polyvinyl alcohol; quench B contains 12.3 mM ammonium molybdate tetrahydrate in 1.15 M sulfuric acid. The reaction is incubated for 10 minutes at 23° C., and the absorbance of the phospho-molybdate complex is measured at 540 nm.

IC50, ≤ 50 µM:
CN(C)C(=O)N1CC(c2cc(F)ccc2F)=CC1(CCCN)c1ccccc1 (stereo not shown) [Compound 4-3, 2-(3-Aminopropyl)-4-(2,5-difluorophenyl)-N,N-dimethyl-2-phenyl-2,5-dihydro-1H-pyrrole-1-carboxamide]
CN(C)C(=O)N1CC(c2cc(Cl)ccc2F)=CC1(CCCNC(N)=O)c1ccccc1 (stereo not shown) [Compound 23-1, 2-{3-[(aminocarbonyl)amino]propyl}-4-(5-chloro-2-fluorophenyl)-N,N-dimethyl-2-phenyl-2,5-dihydro-1H-pyrrole-1-carboxamide]
CN(C)C(=O)N1CC(c2cc(F)ccc2F)=CC1(COCCO)c1ccccc1 (stereo not shown) [Compound 2-2, 4-(2,5-Difluorophenyl)-2-[(2-hydroxyethoxy)methyl]-N,N-dimethyl-2-phenyl-2,5-dihydro-1H-pyrrole-1-carboxamide]
CN(C)CCNCC1(c2ccccc2)C=C(c2cc(F)ccc2F)CN1C(=O)N(C)C (stereo not shown) [Compound 3-2, 4-(2,5-Difluorophenyl)-2-({[2-(dimethylamino)ethyl]amino}methyl)-N,N-dimethyl-2-phenyl-2,5-dihydro-1H-pyrrole-1-carboxamide]
